# Earlier results, collected in patent US6812249B2, “Process for preparing a 3-hydroxy-3-methylbutyrate amino acid salt and method of use” (priority 2003, dated 2004).
# Settings: experienced weight trained athletes; oral supplementation for 6 weeks or 28 days
structure (smiles),measurement,value
CC(C)(O)CC(=O)[O-].CC(C)(O)CC(=O)[O-].[Ca+2] [HMB calcium salt],"alteration in muscle size, fat mass, or strength variables","no alteration in muscle size, fat mass, or strength variables"
